Source: PubChem BioAssay AID1963435 (Molecular Pharmacology Branch, DTP, NCI, 2024)

System: PANC-1 complex spheroid growth, percent test/control
Test: Anticancer human tumor PANC-1 cell line growth inhibition [Asc];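 also: spheroids exposed to agents for 7 days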;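 as to viability, T/C: percent viability relative to DMSO vehicle wells taken as 100%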
Details: for viability, T/C: stronger effect = lower value
Procedure, shortened: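 Tumor cells were grown as complex spheroids with human endothelial cells (HUVEC) and human mesenchymal stem cells as stroma. Agents were tested alone and in combination, in half-log steps down from the clinical Cmax, or from 10 microM where Cmax was unknown.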

CCN1C(C(=O)NC23CCC(C(=O)O)(CC2)CC3)C(c2cccc(Cl)c2F)C2(C(=O)Nc3cc(Cl)ccc32)C12CCCCC2 (stereo not drawn) + Cc1c(S(C)(=O)=O)c(-c2cc(F)cc(N3CCN(c4ccc(NS(=O)(=O)c5ccc(NC(CCN6CCC(C(=O)OCCCP(=O)(O)O)CC6)CSc6ccccc6)c(S(=O)(=O)C(F)(F)F)c5)cc4)CC3)c2)c(-c2ccc(Cl)cc2)n1C(C)C
IC50 (curve of first compound, second compound 0.0316 µM): > 3 µM
IC50 (curve of first compound, second compound 0.1 µM): > 3 µM
IC50 (curve of first compound, second compound 0.316 µM): > 3 µM
IC50 (curve of first compound, second compound 1 µM): > 3 µM
IC50 (curve of first compound, second compound 3.16 µM): > 3 µM
IC50 (curve of first compound, second compound 10 µM): > 3 µM
viability, T/C (second compound 0.0316 µM, first compound 0.00949 µM): 99.1%
viability, T/C (second compound 0.0316 µM, first compound 0.03 µM): 103%
viability, T/C (second compound 0.0316 µM, first compound 0.0949 µM): 93.7%
viability, T/C (second compound 0.0316 µM, first compound 0.3 µM): 110%
viability, T/C (second compound 0.0316 µM, first compound 0.949 µM): 109%
viability, T/C (second compound 0.0316 µM, first compound 3 µM): 114%
viability, T/C (second compound 0.1 µM, first compound 0.00949 µM): 101%
viability, T/C (second compound 0.1 µM, first compound 0.03 µM): 108%
viability, T/C (second compound 0.1 µM, first compound 0.0949 µM): 106%
viability, T/C (second compound 0.1 µM, first compound 0.3 µM): 96.8%
viability, T/C (second compound 0.1 µM, first compound 0.949 µM): 124%
viability, T/C (second compound 0.1 µM, first compound 3 µM): 123%
viability, T/C (second compound 0.316 µM, first compound 0.00949 µM): 99.8%
viability, T/C (second compound 0.316 µM, first compound 0.03 µM): 96.3%
viability, T/C (second compound 0.316 µM, first compound 0.0949 µM): 105%
viability, T/C (second compound 0.316 µM, first compound 0.3 µM): 103%
viability, T/C (second compound 0.316 µM, first compound 0.949 µM): 117%
viability, T/C (second compound 0.316 µM, first compound 3 µM): 109%
viability, T/C (second compound 1 µM, first compound 0.00949 µM): 124%
viability, T/C (second compound 1 µM, first compound 0.03 µM): 107%
viability, T/C (second compound 1 µM, first compound 0.0949 µM): 106%
viability, T/C (second compound 1 µM, first compound 0.3 µM): 107%
viability, T/C (second compound 1 µM, first compound 0.949 µM): 118%
viability, T/C (second compound 1 µM, first compound 3 µM): 115%
viability, T/C (second compound 3.16 µM, first compound 0.00949 µM): 115%
viability, T/C (second compound 3.16 µM, first compound 0.03 µM): 102%
viability, T/C (second compound 3.16 µM, first compound 0.0949 µM): 111%
viability, T/C (second compound 3.16 µM, first compound 0.3 µM): 116%
viability, T/C (second compound 3.16 µM, first compound 0.949 µM): 118%
viability, T/C (second compound 3.16 µM, first compound 3 µM): 123%
viability, T/C (second compound 10 µM, first compound 0.00949 µM): 179%
viability, T/C (second compound 10 µM, first compound 0.03 µM): 189%
viability, T/C (second compound 10 µM, first compound 0.0949 µM): 184%
viability, T/C (second compound 10 µM, first compound 0.3 µM): 186%
viability, T/C (second compound 10 µM, first compound 0.949 µM): 172%
viability, T/C (second compound 10 µM, first compound 3 µM): 155%

CNC(C)C(=O)NC1CN(S(=O)(=O)c2cccc(S(=O)(=O)N3CCC4CCC(C(=O)NC(c5ccccc5)c5ccccc5)N4C(=O)C(NC(=O)C(C)NC)C3)c2)CCC2CCC(C(=O)NC(c3ccccc3)c3ccccc3)N2C1=O (stereo not drawn) + CCN1C(C(=O)NC23CCC(C(=O)O)(CC2)CC3)C(c2cccc(Cl)c2F)C2(C(=O)Nc3cc(Cl)ccc32)C12CCCCC2
IC50 (curve of first compound, second compound 0.00949 µM): > 1 µM
IC50 (curve of first compound, second compound 0.03 µM): > 1 µM
IC50 (curve of first compound, second compound 0.0949 µM): > 1 µM
IC50 (curve of first compound, second compound 0.3 µM): > 1 µM
IC50 (curve of first compound, second compound 0.949 µM): > 1 µM
IC50 (curve of first compound, second compound 3 µM): > 1 µM
viability, T/C (second compound 0.00949 µM, first compound 0.00316 µM): 104%
viability, T/C (second compound 0.00949 µM, first compound 0.01 µM): 96.6%
viability, T/C (second compound 0.00949 µM, first compound 0.0316 µM): 103%
viability, T/C (second compound 0.00949 µM, first compound 0.1 µM): 89.4%
viability, T/C (second compound 0.00949 µM, first compound 0.316 µM): 97%
viability, T/C (second compound 0.00949 µM, first compound 1 µM): 86.5%
viability, T/C (second compound 0.03 µM, first compound 0.00316 µM): 103%
viability, T/C (second compound 0.03 µM, first compound 0.01 µM): 93.9%
viability, T/C (second compound 0.03 µM, first compound 0.0316 µM): 90.9%
viability, T/C (second compound 0.03 µM, first compound 0.1 µM): 93.8%
viability, T/C (second compound 0.03 µM, first compound 0.316 µM): 97.2%
viability, T/C (second compound 0.03 µM, first compound 1 µM): 85.4%
viability, T/C (second compound 0.0949 µM, first compound 0.00316 µM): 90.3%
viability, T/C (second compound 0.0949 µM, first compound 0.01 µM): 96.9%
viability, T/C (second compound 0.0949 µM, first compound 0.0316 µM): 89.4%
viability, T/C (second compound 0.0949 µM, first compound 0.1 µM): 91.2%
viability, T/C (second compound 0.0949 µM, first compound 0.316 µM): 92.2%
viability, T/C (second compound 0.0949 µM, first compound 1 µM): 86.8%
viability, T/C (second compound 0.3 µM, first compound 0.00316 µM): 114%
viability, T/C (second compound 0.3 µM, first compound 0.01 µM): 94.1%
viability, T/C (second compound 0.3 µM, first compound 0.0316 µM): 90.7%
viability, T/C (second compound 0.3 µM, first compound 0.1 µM): 101%
viability, T/C (second compound 0.3 µM, first compound 0.316 µM): 91.3%
viability, T/C (second compound 0.3 µM, first compound 1 µM): 90.6%
viability, T/C (second compound 0.949 µM, first compound 0.00316 µM): 106%
viability, T/C (second compound 0.949 µM, first compound 0.01 µM): 100%
viability, T/C (second compound 0.949 µM, first compound 0.0316 µM): 106%
viability, T/C (second compound 0.949 µM, first compound 0.1 µM): 97.8%
viability, T/C (second compound 0.949 µM, first compound 0.316 µM): 100%
viability, T/C (second compound 0.949 µM, first compound 1 µM): 93.2%
viability, T/C (second compound 3 µM, first compound 0.00316 µM): 113%
viability, T/C (second compound 3 µM, first compound 0.01 µM): 111%
viability, T/C (second compound 3 µM, first compound 0.0316 µM): 108%
viability, T/C (second compound 3 µM, first compound 0.1 µM): 103%
viability, T/C (second compound 3 µM, first compound 0.316 µM): 109%
viability, T/C (second compound 3 µM, first compound 1 µM): 89.1%

Cc1c(S(C)(=O)=O)c(-c2cc(F)cc(N3CCN(c4ccc(NS(=O)(=O)c5ccc(NC(CCN6CCC(C(=O)OCCCP(=O)(O)O)CC6)CSc6ccccc6)c(S(=O)(=O)C(F)(F)F)c5)cc4)CC3)c2)c(-c2ccc(Cl)cc2)n1C(C)C (stereo not drawn)
viability, T/C (compound 0.0316 µM): 106% [middle of 7 runs]
viability, T/C (compound 0.1 µM): 108% [middle of 7 runs]
viability, T/C (compound 3.16 µM): 109% [middle of 7 runs]
IC50 (compound alone, run of 11/07/2022): > 10 µM
